Columns and labels:
Assay type in all cases: cell-based
[1] = system: Daudi lymphoma cancer cells; assay: Cancer cell survival (CellTiter-Glo), Daudi; settings: Homo sapiens, 72 h
How it was run: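 Daudi cells (4×10^3/well) were exposed for 72 h at 37 °C to nine concentrations of compound, added as 10× solutions spanning 1 μM–10 mM (fatty acids) or 100 nM–1 mM (others). CellTiter-Glo luminescence gave % survival versus untreated, medium-blank corrected; IC50 derived.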

[2] = system: A549 lung cancer cells; assay: Cancer cell survival (CellTiter-Glo), A549; settings: Homo sapiens, 72 h
How it was run: (§1)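 Luminescent ATP read-out (CellTiter-Glo) after 72 h compound exposure at 37 C/5% CO2. Survival % is calculated against untreated cells minus medium background, and IC50 is taken from nine concentrations run in triplicate. Plating density was 4×10^3 cells/well with overnight attachment beforehand.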

[3] = system: A-431 skin cancer cells; assay: Cancer cell survival (CellTiter-Glo), A-431; settings: Homo sapiens, A-431 cells, 72 h
How it was run: as §1

[4] = system: AGS stomach cancer cells; assay: Cancer cell survival (CellTiter-Glo), AGS; settings: 72 h
How it was run: as §1

[5] = system: MCF7 breast cancer cells; assay: Cancer cell survival (CellTiter-Glo), MCF7; settings: Homo sapiens, 72 h
How it was run: as §1

[6] = system: HCT 116 colorectal cancer cells; assay: Cancer cell survival (CellTiter-Glo), HCT 116; settings: Homo sapiens, HCT 116 cells, 72 h
How it was run: as §1

[7] = system: PC-3 prostate cancer cells; assay: Cancer cell survival (CellTiter-Glo), PC-3; settings: Homo sapiens, PC-3 cells, 72 h, read-out: Cell survival at given concentration
How it was run: as §1

[8] = system: T24 bladder cancer cells; assay: Cancer cell survival (CellTiter-Glo), T24; settings: Homo sapiens
How it was run: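 Viability by CellTiter-Glo after 72 h compound treatment of T24 bladder cancer cells (4×10^3/well, plated the night before), nine concentration levels in triplicate. Percent survival normalised to untreated cells minus medium background, from which IC50 was determined.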

[9] = 101 nM, read-out: Cell survival at given concentration
[10] = 318 nM, read-out: Cell survival at given concentration
[11] = 1 μM, read-out: Cell survival at given concentration
[12] = 3 μM, read-out: Cell survival at given concentration
[13] = 10 μM, read-out: Cell survival at given concentration
[14] = 32 μM, read-out: Cell survival at given concentration
[15] = 100 μM, read-out: Cell survival at given concentration
[16] = 316 μM, read-out: Cell survival at given concentration
[17] = 1000 μM, read-out: Cell survival at given concentration

For `O=c1c(O)c(-c2cc(O)c(O)c(O)c2)oc2cc(O)cc(O)c12` [myricetin], which viability at 0.101 µM [1, 9] is on record?
Its viability at 0.101 µM is 104%.

What about the viability at 0.318 µM [1, 10] of the same compound?
The viability at 0.318 µM was 103%.

And the viability at 1 µM [1, 11]?
The viability at 1 µM was 104%.

And the viability at 3 µM [1, 12]?
The viability at 3 µM was 104%.

What about the viability at 10 µM [1, 13] of the same compound?
Its viability at 10 µM is 105%.

And the viability at 32 µM [1, 14]?
Its viability at 32 µM is 25%.

What about the viability at 100 µM [1, 15] of the same compound?
Its viability at 100 µM is 0%.

What about the viability at 316 µM [1, 16] of the same compound?
Its viability at 316 µM is 0%.

And the viability at 1000 µM [1, 17]?
Its viability at 1000 µM is 0%.

What about the IC50 ([1]; Table 4.1) of the same compound?
Its IC50 is 28.1 µM.

And the viability at 0.101 µM [2, 9]?
The viability at 0.101 µM was 100%.

And the viability at 0.318 µM [2, 10]?
The viability at 0.318 µM was 100%.

What about the viability at 1 µM [2, 11] of the same compound?
The viability at 1 µM was 99%.

What about the viability at 3 µM [2, 12] of the same compound?
The viability at 3 µM was 104%.

What about the viability at 10 µM [2, 13] of the same compound?
Its viability at 10 µM is 101%.

What about the viability at 32 µM [2, 14] of the same compound?
The viability at 32 µM was 99%.

And the viability at 100 µM [2, 15]?
Its viability at 100 µM is 99%.

What about the viability at 316 µM [2, 16] of the same compound?
Its viability at 316 µM is 98%.

And the viability at 1000 µM [2, 17]?
Its viability at 1000 µM is 79%.

And the IC50 ([2]; Table 7.1)?
The IC50 was over 1000 µM.

What about the viability at 0.101 µM [3, 9] of the same compound?
The viability at 0.101 µM was 102%.

And the viability at 0.318 µM [3, 10]?
Its viability at 0.318 µM is 100%.

What about the viability at 1 µM [3, 11] of the same compound?
The viability at 1 µM was 102%.

And the viability at 3 µM [3, 12]?
The viability at 3 µM was 102%.

And the viability at 10 µM [3, 13]?
Its viability at 10 µM is 100%.

What about the viability at 32 µM [3, 14] of the same compound?
The viability at 32 µM was 96%.

And the viability at 100 µM [3, 15]?
The viability at 100 µM was 87%.

What about the viability at 316 µM [3, 16] of the same compound?
The viability at 316 µM was 87%.

And the viability at 1000 µM [3, 17]?
The viability at 1000 µM was 78%.

What about the IC50 ([3]; Table 9.1) of the same compound?
Its IC50 is over 1000 µM.

And the viability at 0.101 µM [4, 9]?
Its viability at 0.101 µM is 107%.

What about the viability at 0.318 µM [4, 10] of the same compound?
Its viability at 0.318 µM is 103%.

What about the viability at 1 µM ([4]; 1 μM, Table 10.1, read-out: Cell survival at given concentration) of the same compound?
Its viability at 1 µM is 110%.

What about the viability at 3 µM ([4]; 3 μM, Table 10.1, read-out: Cell survival at given concentration) of the same compound?
Its viability at 3 µM is 103%.

What about the viability at 10 µM ([4]; 10 μM, Table 10.1, read-out: Cell survival at given concentration) of the same compound?
Its viability at 10 µM is 109%.

And the viability at 32 µM ([4]; 32 μM, Table 10.1, read-out: Cell survival at given concentration)?
Its viability at 32 µM is 111%.

And the viability at 100 µM ([4]; 100 μM, Table 10.1, read-out: Cell survival at given concentration)?
Its viability at 100 µM is 108%.

What about the viability at 316 µM [4, 16] of the same compound?
Its viability at 316 µM is 107%.

What about the viability at 1000 µM [4, 17] of the same compound?
The viability at 1000 µM was 81%.

What about the viability at 0.101 µM [5, 9] of the same compound?
The viability at 0.101 µM was 105%.

What about the viability at 0.318 µM [5, 10] of the same compound?
Its viability at 0.318 µM is 95%.

And the viability at 1 µM [5, 11]?
The viability at 1 µM was 104%.

What about the viability at 3 µM [5, 12] of the same compound?
The viability at 3 µM was 100%.

What about the viability at 10 µM [5, 13] of the same compound?
Its viability at 10 µM is 99%.

And the viability at 32 µM [5, 14]?
Its viability at 32 µM is 103%.

And the viability at 100 µM [5, 15]?
Its viability at 100 µM is 94%.

What about the viability at 316 µM [5, 16] of the same compound?
The viability at 316 µM was 99%.

What about the viability at 1000 µM [5, 17] of the same compound?
The viability at 1000 µM was 87%.

What about the IC50 ([5]; Table 5.1) of the same compound?
The IC50 was over 1000 µM.

What about the viability at 0.101 µM [6, 9] of the same compound?
Its viability at 0.101 µM is 101%.

What about the viability at 0.318 µM [6, 10] of the same compound?
The viability at 0.318 µM was 104%.

What about the viability at 1 µM [6, 11] of the same compound?
The viability at 1 µM was 107%.

What about the viability at 3 µM [6, 12] of the same compound?
The viability at 3 µM was 105%.

And the viability at 10 µM [6, 13]?
Its viability at 10 µM is 102%.

What about the viability at 32 µM [6, 14] of the same compound?
The viability at 32 µM was 31%.

And the viability at 100 µM [6, 15]?
The viability at 100 µM was 0%.

What about the viability at 316 µM [6, 16] of the same compound?
The viability at 316 µM was 0%.

And the viability at 1000 µM [6, 17]?
The viability at 1000 µM was 0%.

And the IC50 ([6]; Table 6.1)?
Its IC50 is 26.5 µM.

What about the viability at 0.101 µM ([7]; 101 nM) of the same compound?
The viability at 0.101 µM was 103%.

What about the viability at 0.318 µM ([7]; 318 nM) of the same compound?
Its viability at 0.318 µM is 99%.

What about the viability at 1 µM ([7]; 1 μM) of the same compound?
Its viability at 1 µM is 103%.

And the viability at 3 µM ([7]; 3 μM)?
The viability at 3 µM was 100%.

And the viability at 10 µM ([7]; 10 μM)?
The viability at 10 µM was 105%.

What about the viability at 32 µM ([7]; 32 μM) of the same compound?
The viability at 32 µM was 101%.

What about the viability at 100 µM ([7]; 100 μM) of the same compound?
Its viability at 100 µM is 102%.

What about the viability at 316 µM ([7]; 316 μM) of the same compound?
The viability at 316 µM was 101%.

And the viability at 1000 µM ([7]; 1000 μM)?
Its viability at 1000 µM is 88%.

And the viability at 0.101 µM ([8]; T-24, 101 nM, 72 h, read-out: Cell survival at given concentration)?
The viability at 0.101 µM was 101%.

And the viability at 0.318 µM ([8]; T-24, 318 nM, 72 h, read-out: Cell survival at given concentration)?
The viability at 0.318 µM was 98%.

And the viability at 1 µM ([8]; T-24, 1 μM, 72 h, read-out: Cell survival at given concentration)?
The viability at 1 µM was 106%.

What about the viability at 3 µM ([8]; T-24, 3 μM, 72 h, read-out: Cell survival at given concentration) of the same compound?
The viability at 3 µM was 102%.

And the viability at 10 µM ([8]; T-24, 10 μM, 72 h, read-out: Cell survival at given concentration)?
The viability at 10 µM was 96%.

What about the viability at 32 µM ([8]; T-24, 32 μM, 72 h, read-out: Cell survival at given concentration) of the same compound?
The viability at 32 µM was 9%.

And the viability at 100 µM ([8]; T-24, 100 μM, 72 h, read-out: Cell survival at given concentration)?
Its viability at 100 µM is 0%.

What about the viability at 316 µM ([8]; T-24, 316 μM, 72 h, read-out: Cell survival at given concentration) of the same compound?
The viability at 316 µM was 0%.

And the viability at 1000 µM ([8]; T-24, 1000 μM, 72 h, read-out: Cell survival at given concentration)?
The viability at 1000 µM was 0%.

What about the IC50 ([8]; T-24, 72 h, Table 3.1, read-out: 1050) of the same compound?
Its IC50 is 19.1 µM.
